Measurements reported in US3989836A, “Method for treating cardiovascular circulatory insufficiencies and hypotonia with 2-hydroxyphenyl-1-oxa-4-azaspiroalkane derivatives” (Warner-Lambert Company, priority 1973, dated 1976).
Where two headings read alike, the source gives them in different places.

What was measured:
Type in all cases: in vivo
[1] = Toxicity on mice (LD50 i.g., largest dose i.v. at which all animals survive); details: for LD50: mouse, in vivo, po; for LD50 i.g.: mice, footnote: not determinable because of insufficient resorption, no dosage-dependent death of the animals
Procedure: I. toxicity was determined on mice in the usual manner; the test and comparison substances being administered in aqueous solution by means of a stomach probe.

[2] = as above
[3] = tested on: average blood pressure; test: Sympathomimetic action: increase of the average blood pressure in % of initial value (awake dogs); details: for increase of the average blood pressure: i.g. up to 20 mg/kg
Procedure: Ii. sympathomimetic action was determined by measurement of the arterial and venous blood pressure using Statham transducers. The measured values were recorded by means of a direct recording instrument. In the case of intragastric administration, the substances were administered in the form of an aqueous solution by means of a stomach probe. Quiet and compatible dogs were trained to lie, without sedation, for a few hours on an operating board. Under local anesthesia, a catheter was introduced into the arteria femoralis. A measurement of arterial blood pressure was then carried out using the catheter and a Statham transducer.

[4] = tested on: average blood pressure; test: Sympathomimetic action: increase of the average blood pressure by 25% over the initial value (narcotised dogs); details: for ED (25% increase): Canis lupus familiaris, read-out: dose for increase of the average blood pressure by 25% over the initial value
Procedure: Ii. sympathomimetic action was determined by measurement of the arterial and venous blood pressure using Statham transducers. The measured values were recorded by means of a direct recording instrument. As experimental animals, adult dogs of both sexes, were used; these had been narcotised with pentobarbital. During the experiment, the animals were kept at their specific body temperature by means of rectum-controlledinfra-red lamps. The compounds tested were injected, in the form of an isotonic solution, into the side branch of the vena femoralis. In the case of intraduodenal administration, the animals were laparotomised, and a cannula was fixed into the small intestine so that the substance, in the form of an aqueous solution, could be introduced directly into the intestine. Furthermore, the pylorus was ligatured in order to prevent regurgitation of the substance into the stomach. In the case of intragastric administration, the substances were administered in the form of an aqueous solution by means of a stomach probe.

| Compound | LD50 [1] [mg/kg] | largest dose i.v. at which all animals survive [2] [mg/kg] | duration of increase of the average blood pressure ([3]; i.g. 4 mg/kg) | increase of the average blood pressure in % of initial value ([3]; i.g. 4 mg/kg) [%] | increase of the average blood pressure in % of initial value ([3]; i.v. 0.05 mg/kg) | ED (25% increase) ([4]; intraduodenal, i.d.) [mg/kg] | duration of increase of the average blood pressure by 25% over the initial value ([4]; i.d. 2.0 mg/kg) | duration of increase of the average blood pressure ([3]; i.g. 2 mg/kg) | increase of the average blood pressure in % of initial value ([3]; i.g. 2 mg/kg) [%] | ED (25% increase) ([4]; po, i.g.) [mg/kg] | duration of increase of the average blood pressure by 25% over the initial value ([4]; i.g. 2.0 mg/kg) | duration of increase of the average blood pressure ([3]; i.g. 16 mg/kg) | increase of the average blood pressure in % of initial value ([3]; i.g. 16 mg/kg) [%] | increase of the average blood pressure in % of initial value ([3]; i.v. 1 mg/kg) | duration of increase of the average blood pressure by 25% over the initial value ([4]; i.g. 4.0-16.0 mg/kg) | LD50 i.g. [1] | increase of the average blood pressure [3] |
| --- | --- | --- | --- | --- | --- | --- | --- | --- | --- | --- | --- | --- | --- | --- | --- | --- | --- |
| Oc1cccc(C2CNC3(CCCCC3)O2)c1 (stereo not shown) [A, 2-(3'-hydroxyphenyl)-1-oxa-4-azaspiro[4,5]decane] | > 400 | 3.3 | > 60 ' | 40 | 50-80% | 2 | > 50 ' |  |  |  |  |  |  |  |  |  |  |
| Oc1cccc(C2CNC3(CCCCCC3)O2)c1 (stereo not shown) [B, 2-(3'-hydroxyphenyl)-1-oxa-4-azaspiro[4,6]undecane] | ~400 | 3.3 |  |  | 40-70% |  |  | 70 ' | 35 | 2 | > 60 ' |  |  |  |  |  |  |
| CC1=CC2(CC(C)(C)C1)NCC(c1cccc(O)c1)O2 (stereo not shown) [C, 7,9,9-trimethyl-2-(3'-hydroxyphenyl)-1-oxa-4-azaspiro-[4,5]dec-6-ene] | ~1200 | 20.7 |  |  |  |  |  |  |  | 4 to 16 |  | 34 ' | 50 | 30-60% | 60 ' |  |  |
| NCC(O)c1cccc(O)c1 (stereo not shown) [D, 1-(3'-hyroxyphenyl)-2-aminoethanol, reference compound] |  | 3.3 |  |  | 50-70% | > 20 |  |  |  |  |  |  |  |  |  | not determinable | without effect |
| CCNCC(O)c1cccc(O)c1 (stereo not shown) [E, 1-(3'-hydroxyphenyl)-2-ethylaminoethanol, reference compound] |  | 7.25 |  |  | 25% | > 20 |  |  |  |  |  |  |  |  |  | not determinable | without effect |
